In patent publication US6368812B1 (priority 1996, dated 2002):

Experiments:
human GALR3 [1] = biological target: T1, human GALR3 (Homo sapiens, UniProt O60755); test: porcine 125I-galanin binding, LM(tk-) cells stably expressing human GALR3 (L-hGalR3-228)
T1 construct: The full-length human GALR3 gene contains 1107 bp within its coding region, encoding for a predicted protein of 368 aa; expressed in transfected cells
T1 sequence (O60755 1-368): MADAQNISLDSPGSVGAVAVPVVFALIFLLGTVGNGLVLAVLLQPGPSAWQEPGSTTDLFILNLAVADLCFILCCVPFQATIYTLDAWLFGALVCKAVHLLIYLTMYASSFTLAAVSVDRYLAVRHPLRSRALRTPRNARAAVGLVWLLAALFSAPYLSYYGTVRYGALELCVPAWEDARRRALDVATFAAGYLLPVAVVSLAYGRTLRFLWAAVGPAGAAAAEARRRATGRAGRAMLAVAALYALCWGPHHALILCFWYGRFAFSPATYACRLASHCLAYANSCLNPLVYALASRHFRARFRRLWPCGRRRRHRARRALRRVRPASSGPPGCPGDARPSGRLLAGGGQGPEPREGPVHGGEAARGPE

rat GALR1 = biological target: T2, rat GALR1 (Rattus norvegicus, UniProt Q62805); test: biochemical; assay type: binding; settings: Table 9; read-out: Ki (nM) Rat GalR1 CHO
T2 construct: expressed in transfected cells; host or cells: CHO
T2 sequence (Q62805 1-346): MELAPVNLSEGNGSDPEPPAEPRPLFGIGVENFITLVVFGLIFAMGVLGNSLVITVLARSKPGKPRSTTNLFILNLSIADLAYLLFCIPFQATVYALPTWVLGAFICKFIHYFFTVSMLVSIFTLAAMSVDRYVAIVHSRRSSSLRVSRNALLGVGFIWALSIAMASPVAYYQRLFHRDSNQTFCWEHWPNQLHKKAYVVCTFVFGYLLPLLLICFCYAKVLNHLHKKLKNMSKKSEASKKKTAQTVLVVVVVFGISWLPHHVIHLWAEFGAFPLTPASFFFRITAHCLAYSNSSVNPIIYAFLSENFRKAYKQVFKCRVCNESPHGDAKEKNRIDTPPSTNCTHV

rat GALR2 = biological target: T3, rat GALR2 (Rattus norvegicus, UniProt O08726); test: porcine 125I-galanin binding assay, Rat GALR2 LMTK #4
T3 construct: expressed in transfected cells
T3 sequence (O08726 1-372): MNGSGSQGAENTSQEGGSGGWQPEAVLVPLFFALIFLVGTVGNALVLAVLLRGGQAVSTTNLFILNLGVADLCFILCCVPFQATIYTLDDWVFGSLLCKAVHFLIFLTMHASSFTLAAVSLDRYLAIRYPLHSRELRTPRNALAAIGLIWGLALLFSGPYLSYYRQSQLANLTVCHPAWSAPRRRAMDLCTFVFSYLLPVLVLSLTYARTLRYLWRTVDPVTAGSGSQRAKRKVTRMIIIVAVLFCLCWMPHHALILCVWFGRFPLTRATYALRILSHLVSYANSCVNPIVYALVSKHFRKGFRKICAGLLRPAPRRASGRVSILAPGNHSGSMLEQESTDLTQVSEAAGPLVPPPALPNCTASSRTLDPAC

Hum GALR1 = biological target: T4, Hum GALR1 (Homo sapiens, UniProt P47211); test: porcine 125I-galanin binding assay, Hum GALR1 LM(tk-); settings: Table 10
T4 sequence (P47211 1-349): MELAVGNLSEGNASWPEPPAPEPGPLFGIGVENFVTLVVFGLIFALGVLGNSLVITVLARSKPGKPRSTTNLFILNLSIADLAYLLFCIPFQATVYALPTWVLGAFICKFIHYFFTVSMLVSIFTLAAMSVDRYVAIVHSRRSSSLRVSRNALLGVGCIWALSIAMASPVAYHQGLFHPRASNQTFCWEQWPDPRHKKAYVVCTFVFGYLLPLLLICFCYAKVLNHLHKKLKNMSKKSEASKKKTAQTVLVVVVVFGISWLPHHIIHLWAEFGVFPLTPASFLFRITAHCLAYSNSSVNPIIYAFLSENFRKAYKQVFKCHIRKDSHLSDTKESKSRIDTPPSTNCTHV

Hum GALR2 = biological target: T5, Hum GALR2 (Homo sapiens, UniProt O43603); test: porcine 125I-galanin binding assay, Hum GALR2 CHO
T5 construct: expressed in transfected cells; host or cells: CHO
T5 sequence (O43603 1-387): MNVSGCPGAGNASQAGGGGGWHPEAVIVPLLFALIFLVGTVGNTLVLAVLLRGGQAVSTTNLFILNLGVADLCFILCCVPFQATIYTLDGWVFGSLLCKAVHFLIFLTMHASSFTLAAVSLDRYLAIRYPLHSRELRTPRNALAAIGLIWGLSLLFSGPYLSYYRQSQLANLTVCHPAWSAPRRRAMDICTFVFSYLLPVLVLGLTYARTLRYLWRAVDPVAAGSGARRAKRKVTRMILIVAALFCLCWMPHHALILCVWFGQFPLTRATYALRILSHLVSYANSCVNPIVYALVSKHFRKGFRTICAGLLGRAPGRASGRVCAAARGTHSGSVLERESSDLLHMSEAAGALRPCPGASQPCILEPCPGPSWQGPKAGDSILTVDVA

rat GALR3 [2] = biological target: T6, rat GALR3 (Rattus norvegicus, UniProt O88626); test: porcine 125I-galanin binding, membranes of stable cell line 293-rGalR3-105; parameters: which comprises the entire coding region of rat GALR3; expressed in transfected cells; settings: Ki (nM) Rat GALR3 293 #105, Table 9
T6 sequence (O88626 1-370): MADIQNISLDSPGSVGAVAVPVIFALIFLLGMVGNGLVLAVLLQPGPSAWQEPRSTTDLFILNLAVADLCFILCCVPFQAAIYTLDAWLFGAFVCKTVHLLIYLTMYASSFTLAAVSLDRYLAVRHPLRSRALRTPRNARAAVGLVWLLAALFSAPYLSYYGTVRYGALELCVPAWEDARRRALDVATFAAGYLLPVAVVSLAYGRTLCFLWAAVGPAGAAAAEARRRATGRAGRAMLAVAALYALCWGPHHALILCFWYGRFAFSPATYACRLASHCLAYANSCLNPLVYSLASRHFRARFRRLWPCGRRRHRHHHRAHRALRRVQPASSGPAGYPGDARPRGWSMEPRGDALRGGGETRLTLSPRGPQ

[3] = biological target: T7, human α1A adrenergic receptor (Homo sapiens, UniProt P35348); assay type: cell-based
T7 construct: expressed in transfected cells; host or cells: Xenopus laevis oocytes, mRNA-injected
T7 sequence (P35348 1-466): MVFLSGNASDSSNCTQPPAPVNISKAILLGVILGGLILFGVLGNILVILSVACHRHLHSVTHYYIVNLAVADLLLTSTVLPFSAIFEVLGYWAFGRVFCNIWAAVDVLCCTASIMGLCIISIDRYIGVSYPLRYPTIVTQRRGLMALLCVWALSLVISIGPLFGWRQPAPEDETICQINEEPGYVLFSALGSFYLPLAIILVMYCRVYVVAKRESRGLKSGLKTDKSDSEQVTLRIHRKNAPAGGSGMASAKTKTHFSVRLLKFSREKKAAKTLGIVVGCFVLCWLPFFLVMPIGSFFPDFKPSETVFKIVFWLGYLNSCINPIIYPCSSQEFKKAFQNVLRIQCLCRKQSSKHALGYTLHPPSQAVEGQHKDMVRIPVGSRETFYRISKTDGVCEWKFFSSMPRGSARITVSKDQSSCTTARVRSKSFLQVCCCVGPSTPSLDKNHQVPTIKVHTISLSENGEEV
Experimental: FIG. 7 Pertussis toxin sensitivity of GalR3 and GalR1 stimulation of GIRK currents. […] . Number of observations appears in parenthesis below the x-axis. Apparent absence of a bar indicates an amplitude of 0 (no response above baseline).
5′-[…] […]-3′ (SEQ ID NO. 59). […] The new plasmid was designated M52.
Experiments were carried out at room temperature.

human GALR3 [4] = biological target: T1, human GALR3; test: voltage clamp currents in Xenopus oocytes expressing hGALR3 and GIRK1/GIRK4; assay type: cell-based
Experimental: Activation of inwardly rectifying currents that are sensitive to 300 μM Ba^++ signifies GALR3 coupling to a Gαi or Gαo pathway in the oocytes.
Oocytes were isolated as described above, except that 3 mg/mL collagenase was used to defolliculate the oocytes.

[5] = food intake after intracerebroventricular injection in rats; settings: injected i.c.v.
Experimental: Measurement of food intake was performed for 3 hours after injection, but other protocols may also be used. Saline was injected as a control, but it is understood that other vehicles may be required as controls for some peptides and compounds. […] A preferred anatomic location for injection is the hypothalamus, in particular, the paraventricular nucleus.

rat GALR3 [6] = biological target: T6, rat GALR3; test: porcine 125I-galanin binding, rat GALR3 transiently expressed in COS-7 cell membranes; parameters: which comprises the entire coding region of rat GALR3; expressed in transfected cells; host or cells: COS-7, transient; settings: peptide displacement assays
Experimental: Assays were conducted at room temperature for 120 minutes, and leupeptin, aprotonin and phosphoramidon were omitted from the rat GALR3 assay, while bacitracin was added to 0.1%.

[7] = Ki (nM) Hum GALR3 LMTK− #8, Table 10

Structure (SMILES) | Ki (human GALR3 [1]; [7]) | Ki (rat GALR1) | Ki (rat GALR2) | Ki (Hum GALR1) | Ki (Hum GALR2) | Ki (rat GALR3 [2]) | Cl− currents in oocytes expressing α1a receptors [3] | Ki (human GALR3 [1]; Ki (nM) Human L-hGalR3-228, Table 5, stable) | Ki (human GALR3 [1]; human GALR3LM (tk−) Ki (nM), Table 8) | EC50 (human GALR3 [4]) | agonist activity at human GALR3 in oocytes (human GALR3 [4]) | feeding / food intake in words [5] | binding affinity for rat GALR3 in words (rat GALR3 [6])
CC[C@H](C)[C@H](NC(=O)[C@H](C)NC(=O)[C@H](Cc1c[nH]cn1)NC(=O)[C@@H]1CCCN1C(=O)CNC(=O)[C@H](CC(C)C)NC(=O)[C@H](CC(C)C)NC(=O)[C@H](Cc1ccc(O)cc1)NC(=O)CNC(=O)[C@H](C)NC(=O)[C@H](CO)NC(=O)[C@H](CC(N)=O)NC(=O)[C@H](CC(C)C)NC(=O)[C@@H](NC(=O)[C@H](Cc1c[nH]c2ccccc12)NC(=O)CNC(=O)[C@H](CCCNC(=N)N)NC(=O)[C@H](CCCCN)NC(=O)[C@H](CCC(=O)O)NC(=O)[C@H](CCCCN)NC(=O)[C@@H](NC(=O)[C@@H]1CCCN1C(=O)[C@H](CO)NC(=O)CNC(=O)[C@@H](N)CC(C)C)C(C)C)[C@@H](C)O)C(=O)N[C@@H](CC(=O)O)C(=O)N[C@@H](CC(N)=O)C(=O)N[C@@H](Cc1c[nH]cn1)C(=O)N[C@@H](CCCNC(=N)N)C(=O)N[C@@H](CO)C(=O)N[C@@H](Cc1ccccc1)C(=O)N[C@@H](Cc1c[nH]cn1)C(=O)N[C@@H](CC(=O)O)C(=O)N[C@@H](CCCCN)C(=O)N[C@@H](Cc1ccc(O)cc1)C(=O)NCC(=O)N[C@@H](CC(C)C)C(=O)N[C@@H](C)C(N)=O [(−)9 to (+)29 galanin, porcine] | 50.1 nM | 51.3 nM | 3.47 nM | 7.85 nM | 5.43 nM | 4.17 nM |  |  |  |  |  |  | 
CC[C@H](C)[C@H](NC(=O)[C@H](C)NC(=O)[C@H](Cc1c[nH]cn1)NC(=O)[C@@H]1CCCN1C(=O)CNC(=O)[C@H](CC(C)C)NC(=O)[C@H](CC(C)C)NC(=O)[C@H](Cc1ccc(O)c(I)c1)NC(=O)CNC(=O)[C@H](C)NC(=O)[C@H](CO)NC(=O)[C@H](CC(N)=O)NC(=O)[C@H](CC(C)C)NC(=O)[C@@H](NC(=O)[C@@H](Cc1c[nH]c2ccccc12)NC(=O)CN)[C@@H](C)O)C(=O)N[C@@H](CC(=O)O)C(=O)N[C@@H](CC(N)=O)C(=O)N[C@@H](Cc1c[nH]cn1)C(=O)N[C@@H](CCCNC(=N)N)C(=O)N[C@@H](CO)C(=O)N[C@@H](Cc1ccccc1)C(=O)N[C@@H](Cc1c[nH]cn1)C(=O)N[C@@H](CC(=O)O)C(=O)N[C@@H](CCCCN)C(=O)N[C@@H](Cc1ccc(O)c(I)c1)C(=O)NCC(=O)N[C@@H](CC(C)C)C(=O)N[C@@H](C)C(N)=O [D-Trp2-(d-iodo-L-Tyr9)-(3-iodo-L-Tyr26)-galanin] | 933 nM |  |  |  |  | 182 nM |  |  |  |  |  |  | 
CNC[C@H](O)c1ccc(O)c(O)c1 [epinephrine] |  |  |  |  |  |  | stimulates transient Cl^− currents |  |  |  |  |  | 
CC[C@H](C)[C@H](NC(=O)[C@H](C)NC(=O)[C@H](Cc1c[nH]cn1)NC(=O)[C@@H]1CCCN1C(=O)CNC(=O)[C@H](CC(C)C)NC(=O)[C@H](CC(C)C)NC(=O)[C@H](Cc1ccc(O)cc1)NC(=O)CNC(=O)[C@H](C)NC(=O)[C@H](CO)NC(=O)[C@H](CC(N)=O)NC(=O)[C@H](CC(C)C)NC(=O)[C@@H](NC(=O)[C@H](Cc1c[nH]c2ccccc12)NC(=O)CNC(=O)[C@H](CCCNC(=N)N)NC(=O)[C@H](CCCCN)NC(=O)[C@H](CCC(=O)O)NC(=O)[C@H](CCCCN)NC(=O)[C@@H](NC(=O)[C@@H]1CCCN1C(=O)[C@@H](N)CO)C(C)C)[C@@H](C)O)C(=O)N[C@@H](CC(=O)O)C(=O)N[C@@H](CC(N)=O)C(=O)N[C@@H](Cc1c[nH]cn1)C(=O)N[C@@H](CCCNC(=N)N)C(=O)N[C@@H](CO)C(=O)N[C@@H](Cc1ccccc1)C(=O)N[C@@H](Cc1c[nH]cn1)C(=O)N[C@@H](CC(=O)O)C(=O)N[C@@H](CCCCN)C(=O)N[C@@H](Cc1ccc(O)cc1)C(=O)NCC(=O)N[C@@H](CC(C)C)C(=O)N[C@@H](C)C(N)=O [galanin −7 to +29, (−7) to (+29) galanin, porcine] | 28.8 nM | 36.3 nM | 3.16 nM | 6.84 nM | 4.95 nM |  |  | 29 nM | 28.8 nM | 1910 nM | evoked agonist activity | induces feeding | affinity comparable to that for porcine galanin
